{"source": "patent US20260374739A1", "about": "“SMALL MOLECULAR WEIGHT CHEMICAL COMPOUND TO ANTAGONIZE EPH-EPHRIN TETRAMERIZATION AND INHIBIT BIDIRECTIONAL SIGNALING” (THE BOARD OF REGENTS OF THE UNIVERSITY OF TEXAS SYSTEM, priority 2022, published 2026)", "key": {"[1]": {"tested_on": "EphB2, Cos1 cells", "assay": "ligand:receptor cluster (spot) formation in Cos1 cells, immunofluorescence", "assay_type": "cell-based", "settings": "A20 40 μM; listed as A20", "description": "FIG. 14 depicts representative fluorescent images and quantification showing that Cos1 cells exposed to pre-clustered EB2-Fc binds to EphB2 forming spots on the cell (green) that also contain phosphotyrosine (red, arrows).\nTo assess if A20 would reduce the ability of EphrinB2 to stimulate activation of the EphB tyrosine kinase domain in live cells, Cos1 cells that express endogenous EphB2 were exposed to pre-clustered EB2-Fc ectodomains in the presence or absence of A20 for 30 min. […] Stimulated cells were fixed on the coverslip and subjected to immunofluorescence (IF) with anti-Fc antibodies to detect ligand protein bound to receptor, which leads to formation of circular Eph-Ephrin tetramers that then cluster into large obvious spots on the cell surface by lateral migration through the plasma membrane and also contain anti-phosphotyrosine signal indicating activation of the receptor's kinase domain."}, "[2]": {"target": "EphB2-EphrinB2 tetramer (Homo sapiens, UniProt P29323)", "sequence (P29323 19-543 limits assumed)": "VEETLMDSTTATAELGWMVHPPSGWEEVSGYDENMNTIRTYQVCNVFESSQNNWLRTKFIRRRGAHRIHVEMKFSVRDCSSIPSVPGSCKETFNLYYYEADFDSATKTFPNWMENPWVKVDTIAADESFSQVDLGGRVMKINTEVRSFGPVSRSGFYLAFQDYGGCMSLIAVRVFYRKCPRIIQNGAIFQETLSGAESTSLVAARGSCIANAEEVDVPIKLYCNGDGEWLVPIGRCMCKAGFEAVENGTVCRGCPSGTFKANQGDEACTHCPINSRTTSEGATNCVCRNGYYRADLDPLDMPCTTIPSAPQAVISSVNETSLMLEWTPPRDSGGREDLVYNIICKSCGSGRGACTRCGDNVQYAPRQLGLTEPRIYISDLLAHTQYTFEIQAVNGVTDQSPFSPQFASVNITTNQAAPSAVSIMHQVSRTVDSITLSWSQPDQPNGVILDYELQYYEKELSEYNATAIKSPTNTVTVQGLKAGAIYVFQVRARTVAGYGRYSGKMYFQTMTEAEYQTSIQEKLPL", "assay": "mass photometry", "assay_type": "binding, mouse EphrinB2", "settings": "216 kDa without", "description": "To verify the kinetic studies using the Octet system, mass photometry (MP) that uses optical detection to measure the mass of individual proteins and protein complexes in solution was employed. MP was used to determine the mass of EphB2 and EphrinB2 ectodomain proteins individually or after being combined and allowed to associate into tetramers for a 24 hr period either without or with 10 or 50 μM concentrations of the A20 salt (FIG. 26). For these experiments His-tagged proteins, human hEphB2-His and murine mEB2-His were used. […] During MP experiments EphB2 and EB2 when analyzed alone would each measure as a homodimer, and when the EphB2 and EphrinB2 proteins are combined, the average mass of the protein species shifted to a larger 216 kDa species (FIG. 26C). The size was as expected if two EphB2 and two EphrinB2 molecules complexed together into the stable circular tetramer (130+83=213 kDa). […] It is important to understand that the MP experiments described here are powerful, but also temporally limited because we can really only assess the protein species after interaction homeostasis has been achieved and for this experiment the proteins and A20 were allowed to incubate together for 24 hr before masses were determined."}, "[3]": {"assay": "multi-day IP dosing tolerability", "assay_type": "in vivo, mouse", "settings": "multi-day dosing every 12 hr, up to 40 mg/kg"}, "[4]": {"tested_on": "CFA-induced mechanical pain in mice", "assay": "CFA inflammatory pain, mechanical", "assay_type": "in vivo, mouse", "settings": "IP or PO 20 mg/kg", "description": "The week prior to injection of CFA, adult mice (>10 weeks age, male or female) were first acclimated to the chambers used in pain assessments and then their left and right hind paws were subjected to thermal (heat) and mechanical (touch) pain measurements to obtain baseline data. Mechanical pain was assessed by placing mice on a wire grid and repeatably testing hind paws for their sensitivity to von Frey (VF) filaments of different stiffnesses with the mechanical withdrawal threshold for each mouse hind paw defined as the minimum gauge filament needed to elicit a reflex. Thermal pain was assessed by placing mice on a glass surface and subjecting their hind paws to an infrared heat source (Hargreaves device) that is connected to a timer to measure how long the animal takes to notice the heat and lift the paw. In these tests, both hind paws of mice were subjected to multiple measurements over a 2-3 hr period to (1) either narrow down the VF filament stiffness threshold to plot the touch pain or (2) to obtain six good thermal response measurements which are averaged to provide the data points for heat pain. […] A total of 12 mice were assessed in any one experiment. […]"}}, "note": "Entries after “also recorded” stand apart in the source; their conditions may differ."}
{"molecule": "Oc1c(Br)cc(CN2CCOCC2)c2cccnc12", "note": "[Compound 5, 7-bromo-5-(morpholinomethyl)quinolin-8-ol]", "values": [{"measurement": "ligand:receptor clusters on cell", "setting": "[1]", "value": "significantly reduced the ability of pre-clustered EB2-Fc to bind/cluster the EphB2 receptor to spots on the cell; also recorded: reduced the number of ligand: receptor clusters per cell"}, {"measurement": "average mass of protein species", "setting": "[2]; 10 μM A20 salt", "value": 158, "unit": "kDa"}, {"measurement": "average mass of protein species", "setting": "[2]; 50 μM A20 salt", "value": 150, "unit": "kDa"}, {"measurement": "tolerability", "setting": "[3]", "value": "well tolerated"}, {"measurement": "mechanical pain", "setting": "[4]", "value": "no increased sensitivity to the VF filaments on average"}, {"measurement": "mechanical pain ratio", "setting": "[4]; vehicle 2-3", "value": 1}]}
